From patent US20230174571A1, “METHOD OF TREATING SHIP1-MEDIATED DISEASES USING PELOROL DERIVATIVES” (Zebrapeutics Inc., priority 2020, published 2023)

System: colitis in IL10−/− mice
Test: Mouse colitis model (IL10 knock-out)
Type: in vivo
Details: colitic IL10−/− mice
Protocol: Mouse Colitis Model. Colitis was induced in 6-8 week old BALB/cIL10−/−mice by administering the colonic contents of conventional C57BL/6 mice diluted 1:10 in PBS by oral gavage. Mouse weights and fecal consistencies were monitored and colitis allowed to develop for 6 weeks. Ethanol (Vehicle) and compound I-1 (3 mg/kg) was diluted in cage drinking water and dexamethasone (0.4 mg/kg) was administered every 2 days by oral gavage for 3 weeks. At the end of the dosing period, proximal, medial and distal colon sections were collected for paraffin embedding or stored in RNALater (Invitrogen, Mississauga, ON) for RNA extraction. Slides were prepared, stained with hematoxylin and eosin, and mounted by the UBC Department of Pathology and Laboratory Medicine Histochemistry Facility. Specimens were assigned pathological scores by two, independent, blinded investigators according to a method described by Madsen et al (Madsen et al., 2001). In brief, colonic inflammation was graded using a 4-point scale, scoring 0-3 for each of submucosal edema, immune cell infiltration, goblet cell ablation, and integrity of the epithelial layer. For analysis of mRNA expression, colon sections were homogenized and total RNA extracted as described above and analyzed by real time PCR using gene specific primers for IL17, CCL2, and GAPDH (normalization control).
To show in vivo anti-inflammatory effect of the compounds of the present disclosure, exemplary compound I-1 was administered to IL-10 knock-out mouse model of colitis (Keubler 2015). IL10 knock-out mice develop colitis when colonized with normal gut flora because IL10 is needed to temper the host immune response to intestinal commensal bacteria (Keubler 2015, Kuhn 1993). Colitis was initiated in IL10−/−mice by inoculating them with the freshly isolated colon contents of normal, specific pathogen free mice and allowed inflammation to develop for 6 weeks (Sydora 2003). Mice were then treated for 3 weeks with vehicle, 2 mg/kg compound I-1, or 0.4 mg/kg dexamethasone (anti-inflammatory steroidal drug used as positive control) prior to colon tissue collection for analyses. Hematoxylin and eosin stained sections were prepared from the proximal, mid and distal colons of mice, as well as from mice not inoculated with flora (no colitis group) (FIG. 8A).

[1] = 3 weeks treatment, RT-qPCR relative to GAPDH

`Cc1cc(O)cc2c1C1(C)CCC3C(C)(C)CCCC3(C)C1C2` (stereo not shown) [Compound I-1] was tested, and the “reduction of histological and molecular markers of colon inflammation, compared with dexamethasone” value was “as effective as dexamethasone”, the “pathology scores of colon sections” value (3 weeks treatment, 2 mg/kg compound I-1 or 0.4 mg/kg dexamethasone, vs vehicle) was “significantly lower pathology scores” and the “CCL2 mRNA in colon” value [1] was “significantly reduced”. The “IL17 mRNA in colon” value [1] was “significantly reduced”.
